In brackets after ≈: the same amount, converted by molar mass.
Tests used:
[1] = Half life in C57B6 mouse liver microsomes; assay type: ADME, Microsome
[2] = Oral bioavailability in Beagle dog at 10 mg/kg; assay type: ADME, organism-based, Canis lupus familiaris; details: in vivo
[3] = Aqueous solubility of the compound at pH 1; assay type: physicochemical; details: aqueous solution
[4] = Aqueous solubility of the compound at pH 6.6; assay type: physicochemical; details: aqueous solution
[5] = tested on: Rattus norvegicus; test: Dose normalized AUC in Sprague-Dawley rat measured per mg of plasma at 3 mg/kg, iv and 10 mg/kg, po; assay type: ADME, organism-based; details: in vivo
[6] = Oral bioavailability in C57B6 mouse at 10 mg/kg; assay type: ADME, organism-based; details: in vivo
[7] = Half life in cynomolgus monkey liver microsomes; assay type: ADME, Macaca fascicularis, Microsome
[8] = Half life in human liver microsomes; assay type: ADME, Microsome
[9] = tested on: Cynomolgus monkey; test: Dose normalized AUC in cynomolgus monkey measured per mg of plasma at 5 mg/kg, iv and po; assay type: ADME, organism-based, Macaca fascicularis; parameters: dose 5 mg/kg, route oral; details: in vivo
[10] = tested on: Mus musculus; test: Dose normalized AUC in C57B6 mouse measured per mg of plasma at 2 mg/kg, iv and 10 mg/kg, po; assay type: ADME, organism-based; details: in vivo
[11] = tested on: Canis familiaris; test: Dose normalized AUC in Beagle dog measured per mg of plasma at 2 mg/kg, iv and 10 mg/kg, po; assay type: ADME, organism-based, Canis lupus familiaris; details: in vivo
[12] = Half life in Sprague-Dawley rat liver microsomes; assay type: ADME, Microsome
[13] = Oral bioavailability in cynomolgus monkey at 5 mg/kg; assay type: ADME, organism-based, Macaca fascicularis; details: in vivo
[14] = molecular target: T1, P-selectin glycoprotein ligand 1 (Homo sapiens, UniProt Q14242); test: Inhibition of recombinant PSGL-1 by surface plasmon resonance assay
T1 sequence (Q14242 whole entry): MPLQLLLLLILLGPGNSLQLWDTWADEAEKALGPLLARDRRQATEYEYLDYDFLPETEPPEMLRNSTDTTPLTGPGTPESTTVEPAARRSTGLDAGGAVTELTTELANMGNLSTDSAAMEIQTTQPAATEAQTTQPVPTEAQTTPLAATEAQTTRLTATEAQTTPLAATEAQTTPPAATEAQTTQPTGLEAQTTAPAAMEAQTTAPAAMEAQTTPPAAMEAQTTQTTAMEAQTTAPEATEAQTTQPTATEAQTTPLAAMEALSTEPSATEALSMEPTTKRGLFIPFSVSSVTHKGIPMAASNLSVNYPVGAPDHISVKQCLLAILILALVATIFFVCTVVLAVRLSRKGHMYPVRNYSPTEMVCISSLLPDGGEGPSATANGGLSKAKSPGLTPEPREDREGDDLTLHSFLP

[15] = Aqueous solubility of the compound at pH 7.4; assay type: physicochemical; details: buffer
[16] = Oral bioavailability in Sprague-Dawley rat at 10 mg/kg; assay type: ADME, organism-based; details: in vivo
[17] = Half life in Beagle dog liver microsomes; assay type: ADME, Canis lupus familiaris, Microsome
[18] = Clearance in Sprague-Dawley rat at 3 mg/kg, iv and 10 mg/kg, po; assay type: ADME, organism-based; details: in vivo
[19] = Aqueous solubility of the compound at pH 9; assay type: physicochemical; details: buffer
[20] = Aqueous solubility of the compound at pH 4.5; assay type: physicochemical; details: aqueous solution
[21] = Clearance in C57B6 mouse at 2 mg/kg, iv and 10 mg/kg, po; assay type: ADME, organism-based; details: in vivo
[22] = Clearance in Beagle dog at 2 mg/kg, iv and 10 mg/kg, po; assay type: ADME, organism-based, Canis lupus familiaris; details: in vivo
[23] = molecular target: T2, P-selectin glycoprotein ligand 1 (Homo sapiens) (UniProt Q14242); test: Inhibition of recombinant PSGL-1 at 250 uM by surface plasmon resonance assay
T2 sequence (whole entry): T1 sequence (Q14242 whole entry)

[24] = molecular target: CYP2C9 (Homo sapiens, UniProt P11712); test: Inhibition of CYP2C9 at 3 uM; assay type: ADME
Sequence of CYP2C9 (P11712 whole entry): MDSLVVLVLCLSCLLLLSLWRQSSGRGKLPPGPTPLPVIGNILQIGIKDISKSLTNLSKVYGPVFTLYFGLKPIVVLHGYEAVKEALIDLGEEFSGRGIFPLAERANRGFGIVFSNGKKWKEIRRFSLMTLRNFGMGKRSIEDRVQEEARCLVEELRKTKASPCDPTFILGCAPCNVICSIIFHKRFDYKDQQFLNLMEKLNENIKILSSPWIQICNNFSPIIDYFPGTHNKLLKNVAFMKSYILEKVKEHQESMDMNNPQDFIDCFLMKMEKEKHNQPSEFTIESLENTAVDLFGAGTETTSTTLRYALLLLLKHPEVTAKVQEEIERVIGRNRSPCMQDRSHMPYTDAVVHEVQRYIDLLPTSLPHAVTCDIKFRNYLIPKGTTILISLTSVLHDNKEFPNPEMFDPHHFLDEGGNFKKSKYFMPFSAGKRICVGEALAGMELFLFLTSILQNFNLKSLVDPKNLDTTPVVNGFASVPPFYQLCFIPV

Row | solubility [4] [µg/mL] | AUC [5] [ng·h/mL] | bioavailability [16] [%] | clearance [18] [mL/min/kg] | inhibition [23] [%] | SMILES | also measured
1 | < 10 | 440 | 27 | 11 |  | O=C(O)c1c(O)c(Cc2ccc(Cl)cc2)nc2c3c(ccc12)CCCC3 [PSI-697] | half-life [1]: 14 min; bioavailability [2]: 58%; solubility [3]: < 1 µg/mL; bioavailability [6]: 100%; half-life [7]: 44 min; half-life [8]: > 60 min; AUC [9]: 1202 ng·h/mL; AUC [10]: 1510 ng·h/mL; AUC [11]: 11666 ng·h/mL; half-life [12]: 2 min; bioavailability [13]: 40%; IC50 [14]: 150 µM; solubility [15]: 90 µg/mL (≈ 245 µM); half-life [17]: > 60 min; solubility [19]: 75 µg/mL (≈ 204 µM); solubility [20]: < 1 µg/mL; clearance [21]: 11.6 mL/min/kg; clearance [22]: 0.9 mL/min/kg
2 |  |  |  |  | < 10 | Cc1cc(C)c2nc(C3(c4ccc(F)cc4)CC3)c(O)c(C(=O)O)c2c1 | inhibition at 3 µM [24]: 55%
3 |  |  |  |  |  | CC(=O)N[C@H]1[C@H]([C@H](O)[C@H](O)CO)O[C@@](O[C@H]2[C@@H](O)[C@@H](CO)O[C@@H](O[C@@H]([C@H](O[C@@H]3O[C@@H](C)[C@@H](O)[C@@H](O)[C@@H]3O)[C@H](C=O)NC(C)=O)[C@H](O)CO)[C@@H]2O)(C(=O)O)C[C@@H]1O [SIALYL LEWIS X] | IC50 [14]: 15000 µM
4 | 1000 (≈ 2270 µM) |  |  |  | 46 | O=C(O)c1c(O)c(C2(c3cccc(C(F)(F)F)c3)CC2)nc2c(C(F)(F)F)cccc12 | 
5 | 140 (≈ 381 µM) | 13986 | 100 | 2.4 |  | CCc1cccc2c(C(=O)O)c(O)c(C3(c4ccc(Cl)cc4)CC3)nc12 | 
6 | 800 (≈ 2230 µM) |  |  |  | 45 | O=C(O)c1c(O)c(C2Cc3ccccc32)nc2c(C(F)(F)F)cccc12 (centres undefined) | 
7 | 30 (≈ 77 µM) |  |  |  | 58 | CC(C)C(c1ccccc1)c1nc2c(C(F)(F)F)cccc2c(C(=O)O)c1O (centres undefined) | 
8 |  |  |  |  | < 10 | O=C(O)c1c(O)c(C2(c3ccc(Cl)cc3)CC2)nc2c(C(F)(F)F)cc(Cl)cc12 | inhibition at 3 µM [24]: 72%
9 | 2900 (≈ 7410 µM) | 14282 | 39 | 0.5 | 56 | O=C(O)c1c(O)c(C2(c3ccc(F)cc3)CC2)nc2c(C(F)(F)F)cccc12 | 
10 |  |  |  |  | 40 | CCc1cc(C(F)(F)F)c2nc(C3(c4ccccc4)CC3)c(O)c(C(=O)O)c2c1 | inhibition at 3 µM [24]: 86%
11 | 300 (≈ 736 µM) |  |  |  | 66 | O=C(O)c1c(O)c(C2(c3cccc(Cl)c3)CC2)nc2c(C(F)(F)F)cccc12 | 
12 | 2810 (≈ 7490 µM) | 1472 | 93 | 3.7 | 59 | CC(C)(c1ccccc1)c1nc2c(C(F)(F)F)cccc2c(C(=O)O)c1O | 
13 |  |  |  |  |  | O=C(O)c1c(O)c(Cc2ccccc2)nc2c3c(ccc12)CCCC3 | IC50 [14]: 413 µM
14 | 370 (≈ 1070 µM) | 2663 | 100 | 9 |  | CC(C)c1cccc2c(C(=O)O)c(O)c(C3(c4ccccc4)CC3)nc12 | 
15 |  | 1925 | 45 | 3.9 |  | O=C(O)c1c(O)c(C2(c3ccccc3)CC2)nc2c3c(ccc12)CCCC3 | IC50 [14]: 250 µM
16 | 440 (≈ 1150 µM) |  |  |  | 40 | O=C(O)c1c(O)c(Cc2ccc(Cl)cc2)nc2c(C(F)(F)F)cccc12 | 
17 | 420 (≈ 929 µM) |  |  |  | 64 | O=C(O)c1c(O)c(C2(c3ccc(Br)cc3)CC2)nc2c(C(F)(F)F)cccc12 | 
18 |  |  |  |  | 29 | O=C(O)c1c(O)c(C2(c3ccc(OC(F)(F)F)cc3)CC2)nc2c(C(F)(F)F)cccc12 | 
19 |  |  |  |  | 47 | Cc1cc(C)c2nc(C3(c4ccc(Cl)cc4)CC3)c(O)c(C(=O)O)c2c1 | inhibition at 3 µM [24]: 17%
20 |  |  |  |  | 15 | O=C(O)c1c(O)c(C2(c3cccs3)CC2)nc2c(C(F)(F)F)cccc12 | 
21 | 760 (≈ 1860 µM) | 1336 | 19 | 2.4 | 57 | O=C(O)c1c(O)c(C2(c3ccccc3Cl)CC2)nc2c(C(F)(F)F)cccc12 | 
22 |  | 1259 | 66 | 9 |  | CC(c1ccccc1)c1nc2c3c(ccc2c(C(=O)O)c1O)CCCC3 (centres undefined) | IC50 [14]: 175 µM
23 |  |  |  |  | 40 | Cc1cc(C(F)(F)F)c2nc(C3(c4ccccc4)CC3)c(O)c(C(=O)O)c2c1 | inhibition at 3 µM [24]: 87%

Source: ChEMBL document CHEMBL1212936, “Discovery of 2-[1-(4-chlorophenyl)cyclopropyl]-3-hydroxy-8-(trifluoromethyl)quinoline-4-carboxylic acid (PSI-421), a P-selectin inhibitor with improved pharmacokinetic properties and oral efficacy in models of vascular injury” (J Med Chem, 2010)
